The values below come from patent publication US10052330B2, “Substituted pyrido[3,4-b]pyrazines as Syk inhibitors” (HUTCHISON MEDIPHARMA LIMITED, priority 2011, dated 2018).

Assay [1] concerns RBL-2H3 cells. The assay can be described thus: IgE-induced Beta-hexosaminidase secretion in RBL-2H3 cells. The class given is cell-based. Particulars: Rattus norvegicus, RBL-2H3, RBL-2H3 cells sensitized with SPE-7, stimulated with DNP-BSA; upper bound of each range is 'less than'; read-out: IC50, IgE-induced Beta-hexosaminidase secretion.
Assay [2] has as its system Bone marrow mast cells (BMMCs). The assay can be described thus: IgE-induced LAT phosphorylation in bone marrow mast cells. The class given is cell-based, mice. Particulars: Mus musculus, BMMC; BMMCs from female BALB/C mice, sensitized with SPE-7, stimulated with DNP-BSA; upper bound is 'less than'; read-out: IC50, IgE-induced LAT phosphorylation.
Assay [3] concerns the target Syk kinase (Homo sapiens, UniProt P43405). The assay can be described thus: Syk kinase enzymatic assay (Kit-Tyr 2 Peptide). The class given is biochemical. Particulars: 8 concentrations, 1 μM down to 0.0003 μM; upper bound of each range is 'less than'; read-out: IC50: Enzymatic Activity (Syk kinase).

As a reminder, the IC50 is the concentration that gives 50% inhibition. For `c1cnc2c(N3CCC4(CCNC4)C3)nc(-c3ccc(N4CCOCC4)cc3)cc2n1` (stereo not drawn) [Compound 71], the values for the IC50 in assay [1], in assay [2] and in assay [3] were 100 to 1000 nM, 100 to 1000 nM and 1 to 100 nM, respectively.

Regarding `c1cnc2c(N3CCC4(CCCNC4)C3)nc(-c3ccc(N4CCOCC4)cc3)cc2n1` (stereo not drawn) [Compound 105], the values for the concentration for half-maximal inhibition (IC50) in assay [1], in assay [2] and in assay [3] were 1 to 100 nM, 100 to 1000 nM and 1 to 100 nM, respectively.

On to `Cc1cc(-c2cc3nccnc3c(NC[C@@H]3CNCCO3)n2)ccc1N1CCOCC1` [Compound 116], for which the IC50 in assay [1] is 1 to 100 nM; in assay [2] it was 100 to 1000 nM; in assay [3], 1 to 100 nM.

Turning to `COc1ccc(-c2cc3nccnc3c(NC[C@H]3CCCNC3)n2)cc1F` [Compound 35], the values for the 50% inhibitory concentration (IC50) in assay [1], in assay [2] and in assay [3] were 1 to 100 nM, 100 to 1000 nM and 1 to 100 nM, respectively.

On to `CNc1ccc(-c2cc3nccnc3c(NCC3CCCNC3)n2)cc1` (stereo not drawn) [Compound 44], for which the IC50 in assay [1] lay in the range of 1 to 100 nM; in assay [2], 100 to 1000 nM; in assay [3], 1 to 100 nM.

Consider `CN(C)c1ccc(-c2cc3nccnc3c(NC[C@@H]3CNCCO3)n2)cc1` [Compound 107], for which the IC50 in assay [1] was 1 to 100 nM; in assay [2] it was 100 to 1000 nM; in assay [3], 1 to 100 nM.

On to `COc1ccc(-c2cc3nccnc3c(NC[C@H]3CCCNC3)n2)cc1Cl` [Compound 93], for which the figures for the half-inhibitory concentration (IC50) in assay [1], in assay [2] and in assay [3] were 1 to 100 nM, 100 to 1000 nM and 1 to 100 nM, respectively.

Consider `c1cnc2c(NC[C@H]3CCCNC3)nc(-c3ccc(N4CCCC4)cc3)cc2n1` [Compound 70], for which the half-inhibitory concentration (IC50) in assay [1] lay in the range of 1 to 100 nM; in assay [2], 100 to 1000 nM; in assay [3], 1 to 100 nM.

On to `Nc1ccc(-c2cc3nccnc3c(NC[C@H]3CCCNC3)n2)cc1Cl` [Compound 81], for which the half-inhibitory concentration (IC50) in assay [1] was in the range of 100 to 1000 nM; in assay [2], 100 to 1000 nM; in assay [3] it was 1 to 100 nM.

On to `OC[C@H]1CCN(c2nc(-c3ccc(N4CCOCC4)cc3)cc3nccnc23)C1` [Compound 163, (S)-(1-(7-(4-morpholinophenyl)pyrido[4,3-b]pyrazin-5-yl)pyrrolidin-3-yl)methanol], for which the IC50 in assay [1] fell in the range of 1 to 100 nM; in assay [2], 100 to 1000 nM; in assay [3] it was 100 to 1000 nM.

Turning to `CNc1ccc(-c2cc3nccnc3c(NC[C@@H]3CNCCO3)n2)cc1F` [Compound 137], the half-maximal inhibitory concentration (IC50) in assay [1] lay in the range of 1 to 100 nM; in assay [2] it was 100 to 1000 nM; in assay [3], 1 to 100 nM.

As for `CN(C)c1ccc(-c2cc3nccnc3c(NCC3CCCNC3)n2)cc1` (stereo not drawn) [Compound 12], the half-maximal inhibitory concentration (IC50) in assay [1] fell in the range of 1 to 100 nM; in assay [2] it was 100 to 1000 nM; in assay [3] it was 1 to 100 nM.

On to `CNc1ccc(-c2cc3nccnc3c(NC[C@H]3CCCNC3)n2)cc1` [Compound 82], for which the results for the IC50 in assay [1], in assay [2] and in assay [3] were 1 to 100 nM, 100 to 1000 nM and 1 to 100 nM, respectively.

On to `c1cnc2c(NC[C@@H]3CNCCO3)nc(-c3ccc(N4CCOCC4)nc3)cc2n1` [Compound 99], for which the IC50 lay within 1 to 100 nM in assay [1], 100 to 1000 nM in assay [2] and 1 to 100 nM in assay [3].

Consider `C[C@H](O)CNc1nc(-c2ccc(N3CCOCC3)cc2)cc2nccnc12` [Compound 161], for which the IC50 in assay [1], in assay [2] and in assay [3] was 100 to 1000 nM in each case.

With `Cc1cc(-c2cc3nccnc3c(NC[C@H]3CCCNC3)n2)ccc1N1CCOCC1` [Compound 94], the IC50 was 100 to 1000 nM in assay [1], 100 to 1000 nM in assay [2] and 1 to 100 nM in assay [3].

As for `COc1ccc(-c2cc3nccnc3c(NCC3CCCNC3)n2)cc1` (stereo not drawn) [Compound 10], the IC50 lay within 100 to 1000 nM in assay [1], 100 to 1000 nM in assay [2] and 1 to 100 nM in assay [3].

On to `CN(C)c1ccc(-c2cc3nccnc3c(NCCCN)n2)cc1` [Compound 185], for which the half-maximal inhibitory concentration (IC50) in assay [1] is 100 to 1000 nM; in assay [2] it was 100 to 1000 nM; in assay [3], 1 to 100 nM.

In the case of `FC1CNCC(CNc2nc(-c3ccc(N4CCOCC4)cc3)cc3nccnc23)C1` (stereo not drawn) [Compound 156], the half-inhibitory concentration (IC50) in assay [1] was in the range of 1 to 100 nM; in assay [2], 100 to 1000 nM; in assay [3] it was 1 to 100 nM.

Consider `NC(=O)CCNc1nc(-c2ccc(N3CCOCC3)cc2)cc2nccnc12` [Compound 188], for which the IC50 is 1 to 100 nM in assay [1], 100 to 1000 nM in assay [2] and 100 to 1000 nM in assay [3].

`CNc1ccc(-c2cc3nccnc3c(NC[C@H]3CCCNC3)n2)cc1F` [Compound 140]: the results for the IC50 in assay [1], in assay [2] and in assay [3] were 1 to 100 nM, 100 to 1000 nM and 1 to 100 nM, respectively.
